Here are results for one molecule from patent publication US8273775B2, “Non-steroidal brassinosteroid mimetic” (priority 2006, dated 2012).

Test [1] deals with BR-biosynthetic, BR signaling and BR-induced genes. Nature of the test: Real time PCR of BR pathway genes. The class given is in vivo, Arabidopsis thaliana. The method, then:
FIG. 7: Q-PCR analysis of genes involved in BR biosynthesis. WT Arabidopsis plants were treated with abrasin (indicated as I5) for 2 hours at a concentration of 30 μM and/or with CHX at a concentration of 30 μM and RNA was extracted from whole plants.
FIG. 8: A: Western Blot analysis of the BES1 protein in 35S:BES1:GFP plants treated with BL and abrasin (indicated as I5 throughout the figure) (A); MG132 with BL or abrasin (B); a time course with abrasin (C) and a concentration gradient with abrasin (D). B: Abrasin and BL induce similar transcriptional regulation of the BR pathway.
RNA was extracted with the RNeasy kit. Poly(dT) cDNA was prepared from […] of total RNA with Superscript III reverse transcriptase (Invitrogen) and quantified on an LightCycler 480 apparatus (Roche) with the SYBR Green I Master kit (Roche) according to the manufacturer's instructions. Target quantifications were performed with specific primer pairs designed with the Beacon Designer 4.0 (Premier Biosoft International). All PCRs were performed in triplicate.
The primers used to quantify gene expression levels were for BAS 1: 5′-[…]-3′ and 5′-[…]-3′; BR6Ox1: 5′-TGGCCAATCTTTGGCGAA-3′ and 5′-[…]-3′; BR6Ox2: 5′-[…]-3′ and 5′-[…]-3′; BRI1: 5′-[…]-3′ and 5′-[…]-3′; CPD: 5′-[…]-3′ and 5′-[…]-3′; DWF4: 5′-[…]-3′ and 5′-[…]-3′ ROT3: 5′-ATTGGCGCGTTCCTCAGAT-3′ and 5′-[…]-3′; BES1: 5′-[…]-3′ and 5′-[…]-3′; BIN2: 5′-[…]-3′ and 5′-[…]-3′; BSU 1: 5′-[…]-3′ and 5′-[…]-3′; BZR1: 5′-[…]-3′ and 5′-[…]-3′; CDKA1; 1: 5′-[…]-3′ and 5′-[…]-3′; EEF1α: 5′-[…]-3′ and 5′-[…]-3′; BKI1: 5′-GCTCCGGCGTCGATGA-3′ and 5′-[…]-3′.

In test [2] the target is T1, GST-BIN2 (Arabidopsis thaliana, UniProt Q39011).
T1 sequence (Q39011 1-380): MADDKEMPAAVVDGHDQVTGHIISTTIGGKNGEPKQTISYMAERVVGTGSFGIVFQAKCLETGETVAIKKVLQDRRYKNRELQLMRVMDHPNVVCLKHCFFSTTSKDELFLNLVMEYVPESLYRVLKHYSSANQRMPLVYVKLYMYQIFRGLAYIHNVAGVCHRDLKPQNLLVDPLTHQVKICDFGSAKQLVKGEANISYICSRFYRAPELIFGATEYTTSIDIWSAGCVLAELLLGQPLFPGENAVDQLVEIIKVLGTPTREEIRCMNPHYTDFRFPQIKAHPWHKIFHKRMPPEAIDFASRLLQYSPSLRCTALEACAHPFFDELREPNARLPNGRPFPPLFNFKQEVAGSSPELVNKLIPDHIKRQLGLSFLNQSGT
Description: SPR analysis of binding to immobilized GST-BIN2. The method, then: FIG. 13: Abrasin directly interacts with BIN2. SPR sensorgrams for abrasin binding to GST-BIN2 after injection of different abrasin concentrations as indicated. […] Reference and blank data are subtracted. The experiment was performed in triplicate. Biacore T100 was used to analyze interaction of abrasion with BIN2. Using amine coupling, purified GST-BIN2 was immobilized in the flow cell of a Series S CM5 Sensor Chip (Research Grade, Biacore AB). HBS-EP (Biacore AB) was used as running buffer, flow rate was set at 5 μl/min. The surface of the chip was activated by injecting a mixture of EDC (0.2 M) and NHS (0.05 M) for 10 min. Subsequently, 20 μg/ml GST-BIN2 in 10 mM sodium acetate buffer (pH 6.0) was injected for 20 min. The immobilization level of GST-BIN2 was≈20,000 RU. The chip was then flushed with 1 M ethanolamine (pH 8.5) for 10 min to deactivate the surface. A flow cell treated with a cycle of activation and deactivation without immobilized ligand was used as a reference. […] Different concentrations of abrasin were injected at a flow rate of 30 μl/min over the reference and the GST-BIN2 flow cell for 90 s, followed by 180 s of buffer flow (dissociation phase). Zero concentration samples were used as blanks. The flow cell temperature was set to 25° C.

The subject of test [3] is group II GSK-3 kinases (ASKs) including BIN2. Nature of the test: ASK kinase assay with MBP as substrate, group II. The class given is biochemical, Arabidopsis. As to conditions: 10 μM abrasin. The method, then:
Coomassie staining was used as a loading control. b, Autoradiography of kinase assays with nine ASKs with MBP as a substrate in the presence or absence of 10 μM abrasin. The second member of group IV, ASKκ, had no kinase activity and was not included in the analysis. c, Autoradiography of kinase assays with AtMPK4, AtMPK6 and MBP as a substrate (left) and with AtAUR1 kinase and histone H3 as a substrate (right) in the presence or absence of 10 μM abrasin.
For in vitro kinase assays, MBP, MBP-BES1, and MBP-bes1 (20 ng each) were incubated with GST-BIN2 or GST-BRI1 kinase (200 ng each) in 20 μl of kinase buffer (20 mM Tris [pH 7.5], 100 mM NaCl, and 12 mM MgCl2) and 10 μCi ^32P-γATP. After incubation at 37° C. for 40 min, the reactions were stopped by adding 20 μl of 2×SDS buffer and boiling at 94° C. for 5 min. Proteins were resolved by a PAGE gel and phosphorylation was detected by exposing the dried gel to X-ray film. […]
Besides BIN2, nine additional GSK-3 kinases (also designated ASKs for Arabidopsis SHAGGY-related kinases) divided into four subgroups (I-IV) have been identified in Arabidopsis (Jonak and Hirt, 2002; Yoo et al. 2006). To determine the specificity of abrasin, its effect on the kinase activity of all ASKs was analyzed with myelin basic protein (MBP) as a general substrate. […]

For the molecule `O=C(O)CCC(=O)Nc1ccc(Br)cn1` [abrasin, 4-[(5-bromo-2-pyridinyl)amino]-4-oxobutanoic acid], in test [1] (30 μM, 2 hours), the “expression of genes downstream of the BRI1 receptor” value is reported as “all genes are upregulated”; the “expression of genes involved in biosynthesis and perception” value is “regulated in the same way as a BL-treatment”. In addition, the “RNA levels of BR biosynthetic, signaling and BR-induced genes” value in test [1] (3-day-old seedlings, Abrasin 30 μM, 6 hours, compared to BL 1 μM) is recorded as “the expression profiles resembled closely those of BL treatment”. In test [2], the “concentration from which a clear SPR response starts” value was ≥ 10 µM. In test [2] (1:1 interaction model, 25° C.), this molecule returned a Kd of 199 µM and a kd of 0.081 s⁻¹. For the same molecule, the kon in test [2] (1:1 interaction model, 25° C., read-out: ka) turned out to be 407 M⁻¹ s⁻¹. For the same molecule, the residual activity in test [3] is reported as 1-2.
